# Measured values from ChEMBL document CHEMBL5233265, “Recent advances in the design and development of formyl peptide receptor 2 (FPR2/ALX) agonists as pro-resolving agents with diverse therapeutic potential” (Eur J Med Chem, 2021).
# Experiments:
# fMet-Leu-Phe receptor [1] = target: T1, fMet-Leu-Phe receptor (Homo sapiens, UniProt P21462); assay: Agonist activity at human FPR1 transfected in HL-60 cells assessed as increase in intracellular calcium flux incubated for 30 mins by Fluo-4 AM dye based fluorometer analysis; type: cell-based
# T1 sequence (P21462 whole entry): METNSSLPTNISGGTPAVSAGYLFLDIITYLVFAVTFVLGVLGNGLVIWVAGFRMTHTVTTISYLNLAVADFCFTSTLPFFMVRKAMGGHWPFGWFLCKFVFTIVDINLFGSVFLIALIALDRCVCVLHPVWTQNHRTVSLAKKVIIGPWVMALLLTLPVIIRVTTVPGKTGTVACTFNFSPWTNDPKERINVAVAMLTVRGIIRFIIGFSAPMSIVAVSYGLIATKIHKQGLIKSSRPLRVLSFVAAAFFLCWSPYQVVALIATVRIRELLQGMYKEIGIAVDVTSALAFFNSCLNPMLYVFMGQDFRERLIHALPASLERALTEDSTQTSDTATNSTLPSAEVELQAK
# [2] = target: T2, N-formyl peptide receptor 2 (Homo sapiens, UniProt P25090); assay: Agonist activity at human FPR2 transfected in HL-60 cells assessed as increase in intracellular calcium flux incubated for 30 mins by Fluo-4 AM dye based fluorometer analysis; type: cell-based; conditions: read-out: EC50
# T2 sequence (P25090 whole entry): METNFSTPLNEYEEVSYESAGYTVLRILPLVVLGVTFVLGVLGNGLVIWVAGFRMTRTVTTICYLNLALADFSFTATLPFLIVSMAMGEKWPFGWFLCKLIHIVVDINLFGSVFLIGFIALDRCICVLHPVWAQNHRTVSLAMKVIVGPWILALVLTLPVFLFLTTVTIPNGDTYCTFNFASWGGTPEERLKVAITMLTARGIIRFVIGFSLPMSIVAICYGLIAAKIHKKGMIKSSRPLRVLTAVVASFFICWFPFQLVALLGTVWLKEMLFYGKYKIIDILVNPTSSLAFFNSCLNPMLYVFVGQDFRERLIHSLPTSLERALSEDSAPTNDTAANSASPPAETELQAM
# [3] = Agonist activity at FPR in human PMNL cells assessed as increase in intracellular calcium mobilization incubated for 30 mins by Fluo-4 AM dye based fluorometer analysis; type: cell-based; conditions: 0.5 h
# PMNL = assay: Agonist activity at FPR in human PMNL cells assessed as maximal intracellular calcium mobilization incubated for 30 mins by Fluo-4 AM dye based FLIPR-fluorometeric assay relative to control; type: cell-based; conditions: filed as agonist
# [4] = target: T3, N-formyl peptide receptor 2 (Homo sapiens) (UniProt P25090); assay: Agonist activity at human FPR2 transfected in HL-60 cells assessed as maximal intracellular calcium flux incubated for 30 mins by Fluo-4 AM dye based FLIPR-fluorometeric assay relative to control; type: cell-based; conditions: filed as agonist
# T3 sequence (whole entry): T2 sequence (P25090 whole entry)
# [5] = target: T4, fMet-Leu-Phe receptor (Homo sapiens) (UniProt P21462); assay: Agonist activity at human FPR1 transfected in HL-60 cells assessed as maximal intracellular calcium flux incubated for 30 mins by Fluo-4 AM dye based FLIPR-fluorometeric assay relative to control; type: cell-based; conditions: filed as agonist
# T4 sequence (whole entry): T1 sequence (P21462 whole entry)
# [6] = Agonist activity at FPR in human PMNL cells assessed as increase in intracellular calcium mobilization incubated for 30 mins by Fluo-4 AM dye based FLIPR-fluorometeric assay; type: cell-based; conditions: 0.5 h
# [7] = target: T4, fMet-Leu-Phe receptor (Homo sapiens); assay: Agonist activity at human recombinant FPR1 stably transfected in Flp-In-CHO cells assessed as ERK1/2 phosphorylation at 10 uM incubated for 1 hr by Alphascreen fluorescence assay relative to control; type: cell-based; conditions: filed as agonist
# [8] = target: T2, N-formyl peptide receptor 2; assay: Agonist activity at human recombinant FPR2 stably transfected in Flp-In-CHO cells assessed as increase in intracellular calcium mobilization incubated for 1 hr by Fluo-4 AM dye based fluorescence plate reader assay; type: cell-based
# [9] = target: T3, N-formyl peptide receptor 2 (Homo sapiens); assay: Agonist activity at human recombinant FPR2 stably transfected in Flp-In-CHO cells assessed as maximal intracellular calcium mobilization at 10 uM incubated for 1 hr by Fluo-4 AM dye based fluorescence plate reader assay relative to control; type: cell-based
# fMet-Leu-Phe receptor [10] = target: T1, fMet-Leu-Phe receptor; assay: Agonist activity at human recombinant FPR1 stably transfected in Flp-In-CHO cells assessed as increase in intracellular calcium mobilization incubated for 1 hr by Fluo-4 AM dye based fluorescence plate reader assay; type: cell-based
# fMet-Leu-Phe receptor [11] = target: T1, fMet-Leu-Phe receptor; assay: Agonist activity at human recombinant FPR1 stably transfected in Flp-In-CHO cells assessed as ERK1/2 phosphorylation incubated for 1 hr by Alphascreen fluorescence assay; type: cell-based
# [12] = target: T2, N-formyl peptide receptor 2; assay: Agonist activity at human recombinant FPR2 stably transfected in Flp-In-CHO cells assessed as ERK1/2 phosphorylation incubated for 1 hr by Alphascreen fluorescence assay; type: cell-based
# [13] = target: T3, N-formyl peptide receptor 2 (Homo sapiens); assay: Agonist activity at human recombinant FPR2 stably transfected in Flp-In-CHO cells assessed as ERK1/2 phosphorylation at 10 uM incubated for 1 hr by Alphascreen fluorescence assay relative to control; type: cell-based
# [14] = target: T4, fMet-Leu-Phe receptor (Homo sapiens); assay: Agonist activity at human recombinant FPR1 stably transfected in Flp-In-CHO cells assessed as maximal intracellular calcium mobilization at 10 uM incubated for 1 hr by Fluo-4 AM dye based fluorescence plate reader assay relative to control; type: cell-based
# Mus musculus [15] = assay: Anti-inflammatory activity against BALB/c mouse assessed as suppression ratio of LPS-induced neutrophil infiltration in lung at 3 mg/kg,po measured after 5.5 hrs by Diff-Quick staining based microscopic analysis; type: functional
# [16] = target: T2, N-formyl peptide receptor 2; assay: Agonist activity at human FPR2 expressed in HEK293 cells assessed as increase in calcium flux incubated for 45 mins by Fluo-4 AM dye based fluorescence assay; type: cell-based
# fMet-Leu-Phe receptor [17] = target: T1, fMet-Leu-Phe receptor; assay: Agonist activity at human FPR1 transfected in HL-60 cells assessed as increase in intracellular calcium flux incubated for 30 mins by Fluo-4 AM dye based FLIPR-fluorometeric assay; type: cell-based
# [18] = target: T2, N-formyl peptide receptor 2; assay: Agonist activity at human FPR2 transfected in HL-60 cells assessed as increase in intracellular calcium flux incubated for 30 mins by Fluo-4 AM dye based FLIPR-fluorometeric assay; type: cell-based
# [19] = target: T2, N-formyl peptide receptor 2; assay: Agonist activity at FPR2 (unknown origin) expressed in CHO/Galpha16 cells assessed as increase in calcium flux by FLIPR assay; type: cell-based
# fMet-Leu-Phe receptor [20] = target: T1, fMet-Leu-Phe receptor; assay: Agonist activity at FPR1 (unknown origin) expressed in CHO/Galpha16 cells assessed as increase in calcium flux by FLIPR assay; type: cell-based
# [21] = target: T3, N-formyl peptide receptor 2 (Homo sapiens); assay: Agonist activity at human FPR2 transfected in HL-60 cells assessed as maximal intracellular calcium flux incubated for 30 mins by Fluo-4 AM dye based fluorometer analysis relative to control; type: cell-based; conditions: filed as agonist
# [22] = target: T4, fMet-Leu-Phe receptor (Homo sapiens); assay: Agonist activity at human FPR1 transfected in HL-60 cells assessed as maximal intracellular calcium flux incubated for 30 mins by Fluo-4 AM dye based fluorometer analysis relative to control; type: cell-based; conditions: filed as agonist
# Mus musculus [23] = assay: Anti-inflammatory activity against BALB/c mouse assessed as suppression ratio of LPS-induced neutrophil infiltration in lung at 1 mg/kg,po measured after 5.5 hrs by Diff-Quick staining based microscopic analysis; type: functional
# [24] = target: T2, N-formyl peptide receptor 2; assay: Agonist activity at FPR2 (unknown origin) assessed as increase in calcium flux
compound,measurement,setting,value
O=C(Cn1c(=O)[nH]cc(-c2ccccc2)c1=O)Nc1ccc(Br)cc1,EC50,fMet-Leu-Phe receptor [1]; read-out: EC50,12500 nM
same,EC50,[2],8900 nM
same,EC50,[3],4500 nM
COc1cccc(Cc2c(C)c(C)nn(CC(=O)Nc3ccc(Br)cc3)c2=O)c1,Emax,PMNL,85%
same,Emax,[4],80%
same,Emax,[5],85%
same,EC50,[6],19 nM
COc1cccc(-c2cc(C#N)c(C)n(CC(=O)Nc3ccc(Br)cc3)c2=O)c1,EC50,fMet-Leu-Phe receptor [1]; read-out: EC50,1600 nM
same,EC50,[2],120 nM
same,EC50,[3],390 nM
COc1cccc(Cc2cc(C)nn(C(C)C(=O)Nc3ccc(Cl)cc3)c2=O)c1 (racemic),Emax,[7],70%
same,EC50,[8],> 10000 nM
same,Emax,[9],6%
same,EC50,fMet-Leu-Phe receptor [10],7940 nM
same,EC50,fMet-Leu-Phe receptor [11],1000 nM
same,EC50,[12],1580 nM
same,Emax,[13]; filed as agonist,82%
same,Emax,[14],22%
N/C(=N\C(=O)CCO)[C@H](Cc1ccc(Cl)cc1)NC(=O)Nc1ccc(Cl)cc1,Ratio,Mus musculus [15],86%
CCN1C[C@@H](c2ccc(OC)cc2)[C@H](NC(=O)Nc2ccc(F)cc2)C1=O,EC50,[16],0.13 nM
same,Ratio,Mus musculus [15],97.4%
COc1cccc(Cc2c(-c3ccccc3)c(C)nn(CC(=O)Nc3ccc(Br)cc3)c2=O)c1,EC50,fMet-Leu-Phe receptor [17],Not Active
same,Emax,PMNL,110%
same,Emax,[4],115%
same,EC50,[18],150 nM
same,EC50,[6],200 nM
CC(C)C(C(=O)O)C(C)NC(=O)Nc1ccc(Br)cc1 (stereo in doubt; 18),EC50,[19],855 nM
same,EC50,fMet-Leu-Phe receptor [20],51 nM
COc1cc(F)c([C@@H]2CNC(=O)[C@H]2NC(=O)Nc2ccc(C)cc2)c(F)c1,EC50,[16],0.86 nM
same,Ratio,Mus musculus [15],57%
CC(C)C(C(=O)O)C(C)NC(=O)Nc1ccc(Br)cc1 (stereo in doubt; 20),EC50,[19],9940 nM
same,EC50,fMet-Leu-Phe receptor [20],98 nM
COc1ccc(NC(=O)N[C@H](Cc2ccc(O)cc2)C(=O)NCC2(c3ccccc3)CC2)cc1,Emax,[21],90%
same,EC50,"fMet-Leu-Phe receptor [1]; hl-60, read-out: EC50",5100 nM
same,EC50,[2]; hl-60,410 nM
same,Emax,[22],55%
COc1ccc(NC(=O)N[C@@H](Cc2ccc(O)cc2)C(=O)NCC2(c3ccccc3)CC2)cc1,Emax,[21],130%
same,EC50,fMet-Leu-Phe receptor [1]; read-out: EC50,1500 nM
same,EC50,[2],2900 nM
same,Emax,[22],95%
COc1ccc(NC(=O)N[C@@H](Cc2ccc(C#N)cc2)C(=O)NCC2(c3ccc(O)cc3)CC2)cc1,Emax,[21],75%
same,EC50,fMet-Leu-Phe receptor [1]; read-out: EC50,1300 nM
same,EC50,[2],1600 nM
COc1ccc(NC(=O)N[C@H](Cc2ccc(C#N)cc2)C(=O)NCC2(c3cccc(O)c3)CC2)cc1,Emax,[21],70%
same,EC50,fMet-Leu-Phe receptor [1]; hl-60,Not Active
same,EC50,[2],7000 nM
COc1cccc(Cc2cc(C)nn([C@@H](C)C(=O)Nc3ccc(Cl)cc3)c2=O)c1,Emax,[7],78%
same,EC50,[8],> 10000 nM
same,Emax,[9],4%
same,EC50,fMet-Leu-Phe receptor [10],> 10000 nM
same,EC50,fMet-Leu-Phe receptor [11],1260 nM
same,EC50,[12],> 10000 nM
same,Emax,[13],8%
same,Emax,[14],16%
COc1ccc(NC(=O)N[C@@H]2/C(=N/OCCO)NC[C@H]2c2c(F)cc(OC)cc2F)cc1,EC50,[16],0.27 nM
same,Ratio,Mus musculus [23],96.8%
COc1cccc(Cc2cc(C)nn([C@H](C)C(=O)Nc3ccc(Cl)cc3)c2=O)c1,Emax,[7],82%
same,EC50,[8],> 10000 nM
same,Emax,[9],8%
same,EC50,fMet-Leu-Phe receptor [10],3980 nM
same,EC50,fMet-Leu-Phe receptor [11],794 nM
same,EC50,[12],1260 nM
same,Emax,[13]; filed as agonist,85%
same,Emax,[14],38%
N#Cc1ccc(NC(=O)N[C@@H]2C(=O)NC[C@H]2c2cc3c(cc2F)OCC3)cc1,Ratio,Mus musculus [23],99.2%
COc1cc(F)c([C@@H]2CN3CCON=C3[C@H]2NC(=O)Nc2ccc(F)cc2)c(F)c1,EC50,[24],0.02 nM
COc1ccc(C[C@H](NC(=O)Nc2ccc(Cl)cc2)c2noc(CCO)n2)cc1,EC50,[16],0.17 nM
same,Ratio,Mus musculus [15],94%
CC(C)C(C(=O)O)C(C)NC(=O)Nc1ccc(Br)cc1 (stereo in doubt; 19),EC50,[19],3240 nM
same,EC50,fMet-Leu-Phe receptor [20],13 nM
CC(C)C(C(=O)O)C(C)NC(=O)Nc1ccc(Br)cc1 (stereo in doubt; 21),EC50,[19],25 nM
same,EC50,fMet-Leu-Phe receptor [20],1.7 nM
COc1ccc(Cc2c(C)c(C)nn(CC(=O)Nc3ccc(Br)cc3)c2=O)cc1,EC50,fMet-Leu-Phe receptor [17]; read-out: EC50,900 nM
same,Emax,PMNL,140%
same,Emax,[4],95%
same,Emax,[5],60%
same,EC50,[18]; hl-60,13 nM
same,EC50,[6],270 nM
